Values after ≈ are worked out from the molar mass of the structure shown. Like-named read-outs stand apart in the source and are kept apart here.
Assays:
C. acnes ATCC 6919 [1] = assay: Crystal violet biofilm formation assay, C. acnes ATCC 6919; type: cell-based, Cutibacterium acnes; details: for inhibition at 20 µg/mL / inhibition at 1 µg/mL: Cutibacterium acnes, ATCC6919, 96 h; for inhibition at 20 µg/mL / change in biofilm formation: 20 μg/ml; for inhibition at 20 µg/mL: 96 h culture in RCM, 96-well plate; for change in biofilm formation: 96 h culture; for inhibition at 1 µg/mL: 1 μg/ml, 96 h, 96-well polystyrene plate, read-out: inhibitory effect on biofilm formation
Method: 3. Crystal Violet Film Assay
Crystal violet assay was performed by the previously reported method (Lee et al., 2017b) to quantify biofilm formation.
To quantify the biofilm, planktonic growth was eliminated, the plate was washed three times with distilled water, and the biofilm attached to the well was stained with 0.1% crystal violet for 20 minutes. Thereafter, the plate was washed three times with sterile distilled water, and crystal violet was extracted using 95% ethanol, absorbance was measured at 570 nm using Multiskan EX microplate reader (Thermo Fisher Scientific, Waltham, MA), and the result was shown as an average value of at least 12 replicate wells.
Percentage for inhibition rate represents relative biofilm formation (100×biofilm formation with chemical/biofilm formation of untreated control).

C. acnes ATCC 6919 [2] = assay: Hydrophobicity analysis: microbial adherence to hydrocarbon (MATH); type: cell-based, Cutibacterium acnes; details: for change of cell hydrophobicity: 10 and 20 μg/ml fatty acids, 96 h
Method: MATH analysis (Rosenberg et al., 1980) was performed to identify the effect of fatty acids on the attachability of C. acnes to hydrocarbons (toluene) and the cell surface hydrophobicity of C. acnes.
C. acnes were grown without fatty acids for 96 hours under anaerobic conditions at 37° C.
The OD values of all treated and untreated cultures were adjusted to OD 0.5±0.05, and an equal volume of toluene was added to 3 ml of the cell suspension, followed by stirring for 60 seconds.
After stirring, incubation of an aqueous solution was performed overnight at room temperature to completely remove the trace solvent. OD600 in the aqueous solution was observed and cell surface hydrophobicity (CSH) was evaluated by hydrophobicity index (HI) using the following formula. (HI=[1−(OD600 after vortexing/OD600 before vortexing)]×100) (Mattos-Guaraldi et al., 1999). 8. Identification of Anti-Viral Effect and Cytotoxicity of Myristoleic Acid in Nematode Model

C. acnes ATCC 6919 [3] = assay: Quantification of extracellular polymeric substance (EPS); type: cell-based, Cutibacterium acnes; details: 10 μg/ml, 96 h culture
Method: 6. Quantification of Extracellular Polymeric Substance (EPS)
For EPS quantification, C. acnes treated with control and myristoleic acid was cultured at 37° C. for 96 hours. After culture, the culture was centrifuged at 8,228×g for 10 minutes, and the supernatant was separated.
The cell pellet was washed with sterile PBS to remove the culture supernatant which is free of residual cells. 15 ml of an isotonic solution (10 mM Tris/HCl, pH 8.0, 10 mM EDTA, 2.5% NaCl) was added to the cell pellet, and the mixed wells were culture at 4° C. overnight.
After overnight culture, the cell suspension was shaken to be mixed for 5 minutes, followed by centrifugation at 8,228×g for 10 minutes. The supernatant containing EPS bound with the cells was separated from the cells. Cold ethanol was added to the supernatant in a ratio of 1:3 and left at −20° C. overnight.
After collecting the precipitated EPS by centrifugation at 4° C., 18,514×g for 30 minutes, the pellet was washed with 70% ethanol and dried. The dried EPS was weighed, and inhibition of EPS production by fatty acids was calculated by the following formula (Sivasankar et al., 2016). ([Control wt−Treated wt/Control wt]×100) 7. Hydrophobicity Analysis: Microbial Adherence to Hydrocarbon (MATH)

C. acnes ATCC 6919 [4] = assay: Planktonic cell growth and MIC identification; type: cell-based, Cutibacterium acnes; details: for MIC: after 96 hours of culture
Method: 2. Measurement of Planktonic Cell Growth and MIC Identification In order to identify the effect of fatty acids on the planktonic growth of C. acnes, a culture cultured for 96 hours in a 96-well plate was re-transplanted after undergoing dilution in a ratio of 1:50 and then treated with fatty acids of different concentrations. Plates were cultured under anaerobic condition at 37° C. and maintained using an anaerobic pouch (Fisher Scientific, Pittsburgh, USA). After 96 hours of culture, cell turbidity was checked at 600 nm using Optizen 2120UV spectrophotometer ([…] Co. Ltd., Daejeon, Korea).

S. aureus ATCC 6538 = assay: Biofilm formation of S. aureus ATCC 6538; type: cell-based, Staphylococcus aureus
Text: (§1) The antibacterial and anti-biofilm activity of myristoleic acid against five Staphylococcus aureus strains was identified, including two methicillin-sensitive S. aureus strains (MSSA; ATCC 25923 and ATCC 6538), two methicillin-resistant S. aureus strains (MRSA, MW2, and ATCC 33591), and S. epidermidis strains.

C. acnes [5] = details: after 72 hours, previous report; cited from earlier work
C. acnes ATCC 6919 [6] = assay: Rapid killing (time-kill) experiment; type: cell-based, Cutibacterium acnes; details: 100 μg/ml
Method: 4. Analysis of Rapid Killing of Acne Bacteria Using Fatty Acids To determine the killing time by fatty acids, a time-kill experiment was performed. Briefly, cultures of C. acnes ATCC 6919 grown in RCM broth (BD Difco™, Fisher Scientific, Pittsburgh, USA) at 37° C. under anaerobic conditions for 96 hours were diluted in a ratio of 1:50 with fresh RCM medium. The samples were treated with myristoleic acid (50 and 100 μg/ml) or lauric acid (50 and 100 μg/ml) and cultured at 37° C. under anaerobic conditions while stirring. At each time point, aliquots of treated cells were collected, and after performing appropriate dilutions, cells were smeared on RCM agar plates and incubated at 37° C. for 96 hours, followed by enumeration of CFUs, wherein each experiment was repeated.

[7] = system: S. aureus ATCC 6538, S. aureus ATCC 25923, MRSA MW2, MRSA ATCC 33591, S. epidermidis ATCC 14990; assay: Biofilm formation of five Staphylococcus strains; type: cell-based, Staphylococcus aureus, Staphylococcus epidermidis
Text: as §1

Staphylococcus strains = assay: MIC against Staphylococcus strains; type: cell-based, Staphylococcus aureus
Text: as §1

uninfected C. elegans = assay: Chemical toxicity in uninfected C. elegans; type: in vivo; details: increased to 500 μg/ml for 5 days, uninfected nematodes
Method: The toxicity of myristoleic acid was identified in […].
[…] was treated with myristoleic acid with various doses, and survival was checked every day for 5 consecutive days.
In addition, in order to identify the chemical toxicity of myristoleic acid, uninfected nematodes were exposed to different concentrations of myristoleic acid.

[8] = system: C. elegans infected with C. acnes ATCC 6919; assay: C. elegans killing assay with C. acnes infection; type: in vivo; details: 10 μg/ml, 4 days; 20% survived without treatment
Method: C. elegans killing assay was performed with a slight modification of the previously reported method (Beceiro et al., 2014). Briefly, assays were performed in 96-well plates.
Young adult nematodes (20-30) [fer-15(b26);fem-1(hc17)] were transferred to each well contained in an M9 solution. The untreated control and fatty acid-treated C. acnes cells were each added to separate wells containing 20 to 30 nematodes and incubated at 25° C.
Nematodes solely exposed to E. coli OP50 at CFU of 1×10^6 cells/ml were used as a control.
Viability was identified by exposing to LED or UV LED light for 10 to 30 seconds using the iRiS™ Digital Cell Imaging System (Logos BioSystems, South Korea) by the previously reported method (Rajasekharan et al., 2018). The experiments were repeated three times.

C. acnes [9] = assay: Scanning electron microscopy of biofilm / EPS; type: cell-based, Cutibacterium acnes; details: 10 μg/ml
Method: 5. Scanning Electron Microscopy
Production of extracellular polymeric substance (EPS) was detected by electron microscopy (SEM) by the previously reported method (Lee et al., 2011).
Briefly, C. acnes cells were inoculated in 96-well plates under conditions with or without fatty acids, and a nylon filter (0.4×0.4 mm square) was added to each well. Biofilms were grown on the nylon filters by culturing together for 96 hours without stirring under anaerobic conditions at 37° C.
Then, the biofilm cells on the piece of nylon filter were immobilized with 2.5% glutaraldehyde and 2% formaldehyde for 24 hours and sequentially immobilized with osmium tetroxide, followed by dehydration with ethanol series (50, 70, 80, 90, 95 and 100%) and isoamyl acetate.
After critical point drying, the cells on the filter were stopper-coated with to palladium/gold, and observed under an S-4100 scanning electron microscope (Hitachi, Tokyo, Japan) at a magnification of ×1000 to ×10,000 using an acceleration voltage of 15 kV.

[10] = Cutibacterium acnes, ATCC6919, 96 h, read-out: MIC

SMILES	inhibition at 20 µg/mL (C. acnes ATCC 6919 [1]) [%]	change of cell hydrophobicity (C. acnes ATCC 6919 [2])	EPS production (C. acnes ATCC 6919 [3])	further results
CCCCC/C=C\C/C=C\C/C=C\C/C=C\CCCC(=O)O [arachidonic acid]	> 60	–	–	–
CCCCCC/C=C\CCCCCCCC(=O)O [cis-9-hexadecenoic acid, cis-9 hexadecenoic acid]	–	a little change in hydrophobicity	no significant changes	change in biofilm formation (C. acnes ATCC 6919 [1]): very subtle changes in biofilm formation
CCCCCCCCCC(=O)O [decanoic acid]	> 60	–	no significant changes	MIC (C. acnes ATCC 6919 [4]; [10]): 20 to 200 µg/mL (≈ 116 to 1160 µM)
CCCCCCCC/C=C\CCCCCCCCCCCC(=O)O [erucic acid]	> 60	–	–	–
CCCCCCCCCCCCCCCCC(=O)O [heptadecanoic acid]	> 60	a little change in hydrophobicity	–	–
CCCCCCC(=O)O [heptanoic acid]	–	–	no significant changes	change in biofilm formation (C. acnes ATCC 6919 [1]): very subtle changes in biofilm formation
CCCCCCCCCCCC(=O)O [lauric acid, reference compound]	–	reduced cell hydrophobicity the most	significant reduction in EPS production	anti-biofilm activity (S. aureus ATCC 6538): weak anti-biofilm activity; MIC (C. acnes [5]): 60 µg/mL (≈ 300 µM); inhibition at 1 µg/mL (C. acnes ATCC 6919 [1]): ≥ 80%; killing of C. acnes cells (C. acnes ATCC 6919 [6]): did not effectively kill
CCCCC/C=C\C/C=C\CCCCCCCC(=O)O [linoleic acid]	> 60	reduced cell hydrophobicity the most	–	–
CC/C=C\C/C=C\C/C=C\CCCCCCCC(=O)O [linolenic acid]	> 60	–	–	–
CCCCCCCCCCCCCC(=O)O [myristic acid]	> 60	–	–	–
CCCC/C=C\CCCCCCCC(=O)O [myristoleic acid]	–	reduced cell hydrophobicity the most	significant reduction in EPS production	anti-biofilm activity ([7]; 5 Staphylococcus strains): strong anti-biofilm activity; inhibition at 50 µg/mL ([7]; ALL5, 50 μg/ml, all 5 strains, read-out: biofilm formation inhibitory effect): > 90%; MIC (Staphylococcus strains): 150 µg/mL (≈ 663 µM); C. acnes biofilm formation (C. acnes ATCC 6919 [1]; <10 μg/ml): significantly inhibited; inhibition at 1 µg/mL (C. acnes ATCC 6919 [1]): ≥ 80%; hydrophobicity index (cells made hydrophilic) (C. acnes ATCC 6919 [2]; 10 μg/ml): > 20%; dose-dependent effect on hydrophobicity (C. acnes ATCC 6919 [2]; 5, 10, 15, or 20 μg/ml): clear-cut decrease in hydrophobicity in a dose-dependent manner; toxicity to C. elegans (uninfected C. elegans): did not show toxicity; survival of C. elegans infected with C. acnes [8]: 70%; MIC of myristoleic acid relative to lauric acid (times lower) (C. acnes ATCC 6919 [4]; 20 μg/ml vs 100 μg/ml): 5 times; MIC (C. acnes ATCC 6919 [4]; [10]): 20 to 200 µg/mL (≈ 88.4 to 884 µM); MIC (C. acnes ATCC 6919 [4]): 20 µg/mL (≈ 88.4 µM); planktonic cell growth (C. acnes ATCC 6919 [4]; increased to 10 μg/ml): did not reduce planktonic cell growth; C. acnes cells killed (C. acnes ATCC 6919 [6]; in 1 hour): ≥ 99.999%; EPS production by SEM analysis (C. acnes [9]): reduction in EPS production
CCCCCCCCC(=O)O [nonanoic acid]	> 60	–	–	–
CCCCCCCC/C=C\CCCCCCCC(=O)O [oleic acid]	> 60	–	–	–
CCCCCCCCCCCCCCCC(=O)O [palmitic acid]	> 60	–	–	–
CCCCCCCCCCCCCCCCCC(=O)O [stearic acid]	> 60	a little change in hydrophobicity	no significant changes	–
CCCCCCCCCCCCCCCCCCCCCCC(=O)O [trichoic acid, tricosanoic acid]	> 60	a little change in hydrophobicity	no significant changes	–
CCCCCCCCCCC(=O)O [undecanoic acid]	> 60	–	significant reduction in EPS production	MIC (C. acnes ATCC 6919 [4]; [10]): 20 to 200 µg/mL (≈ 107 to 1070 µM)
CCCCC(=O)O [valeric acid, pentanoic acid]	–	–	–	change in biofilm formation (C. acnes ATCC 6919 [1]): very subtle changes in biofilm formation

Source: patent publication US12576057B2, “Antibacterial and biofilm formation-inhibiting composition containing myristoleic acid as active ingredient” (RESEARCH COOPERATION FOUNDATION OF YEUNGNAM UNIVERSITY, priority 2020, dated 2026)
